The text below walks through data of patent US7741344B2, “Process for preparing purified S-BEL and R-BEL and compositions thereof” (Washington University in St. Louis, priority 2002, dated 2010).

The structures appear in SMILES notation.

In test [1] the test system is MAPK (ERK2) phosphorylation. Briefly: AVP-induced MAPK phosphorylation in A-10 cells (Western). The test is classed as cell-based, rat. Particulars: 5 μM, 15 min, 1 μM AVP; FIG. 9.
A further test deals with PKCδ. Briefly: AVP-induced PKC translocation in A-10 cells (Western), PKCδ. Format: cell-based, rat. Particulars: 5 μM pretreatment 15 min, 1 μM AVP; FIG. 8. The procedure: (§1) Determination of PKC Translocation—Confluent A-10 cells in 10 cm dishes were washed twice with DMEM without serum, followed by incubation with either 5 μM (S)-BEL or ethanol vehicle in DMEM for 15 min at 37° C. This media was then removed and DMEM with or without 1 μM AVP was incubated with the cells for 5 min. After washing with ice-cold PBS, the cells were collected by scraping into 20 mM Tris-HCl, pH 7.4 containing 0.33 M sucrose, 5 mM EDTA, 0.5 mM 4(2-aminoethyl)benzenesulfonylfluoride, and 5 μg/ml leupeptin and were lysed by three cycles of flash freezing with liquid nitrogen and thawing. Each sample was then further homogenized utilizing a teflon homogenizer before isolating the low speed pellet (1,000×g), membrane (100,000×g pellet), and cytosol (100,000×g supernatant) fractions. The protein concentrations of the fractions were determined utilizing the bicinchoninic acid (BCA) assay (Pierce) with BSA as a standard. Samples were electrophoresed and subjected to ECL Western analysis utilizing rabbit polyclonal antibodies against PKCα and PKCε as described above for MAPK phosphorylation. For blots incubated with mouse monoclonal antibodies against PKCδ and PKCι., an anti-mouse IgG (Fab specific)-peroxidase conjugate was utilized in place of the protein A-peroxidase conjugate. […]

Another test has as its system A-10 smooth muscle cells. Nature of the test: AVP-induced [3H]-arachidonic acid liberation from A-10 cells. Particulars: for restoration of arachidonic acid release in (S)-BEL treated A-10 cells: 5 μM (S)-BEL pretreatment, then 1 μM AVP with PMA (1 μM) or DOG (10 μM), FIG. 7. The test is classed as cell-based, rat. The procedure: Quantification of [^3H]-Arachidonic Acid Liberation from A-10 Phospholipids—Rat aortic smooth muscle A-10 cells, cultured in 60 mm dishes (2.5×10^5 cells/dish), were radiolabeled with 0.5 μCi [^3H]-arachidonic acid per dish as previously described (29). Cells were washed once with DMEM containing 0.25% fatty acid free bovine serum albumin followed by two washes with DMEM alone. Cells were then incubated with the indicated concentrations of (R)-, (S)-, rac-BEL, or ethanol vehicle (0.1% final concentration) in DMEM for 20 min. This media was removed and the cells were then incubated with DMEM containing 10% heat-inactivated fetal bovine serum in the absence or presence of 1 μM AVP. In some tests, PMA (1 μM) or DOG (10 μM) was added to the medium containing AVP. After 5 mm, 1 ml of this medium was removed, lipids were extracted into 2 ml of chloroform/methanol/acetic acid (25:24:1 v/v) (38), and the remaining cells were scraped into 1 ml of deionized water prior to lipid extraction as described above. The chloroform layer was evaporated under nitrogen and the extracted lipids were separated by thin layer chromatography (petroleum ether/ethyl ether/glacial acetic acid 70:30:1). Regions containing fatty acids and phospholipids were scraped into vials and radioactivity was quantified by liquid scintillation spectrometry.
A-10 cells (2.5×10^5 cells/dish) were radiolabeled with [^3H]-arachidonic acid (0.5 μCi/dish) for 20 hrs. After washing to remove unincorporated [^3H]-arachidonic acid, cells were then incubated with either 1 μM or 5 μM (R)-BEL, (S)-BEL, rac-BEL, or ethanol vehicle (0.1%) in DMEM for 20 mm. This media was removed and the cells were then incubated with 3 ml of DMEM containing 10% heat-inactivated fetal bovine serum with or without 1 μM AVP. After 5 min, 1 ml of this medium was removed and lipids were extracted into 2 ml of chloroform/methanol/acetic acid (25:24:1). The remaining cells were scraped into 1 ml of deionized water and total lipids were extracted as described above. The chloroform layer was evaporated under nitrogen and the extracted lipids were separated by TLC. Regions containing fatty acids and phospholipids were scraped into vials and radioactivity was quantified by liquid scintillation spectrometry. Results are representative of four separate tests.
A-10 cells were radiolabeled with [^3H]-arachidonic acid, washed, and pre-incubated with 5 μM (S)-BEL or ethanol vehicle alone for 15 min as described in FIG. 5. DMEM media containing 10% heat-inactivated fetal bovine serum with or without 1 μM AVP was then added to the cells. After 5 min at 37° C., [^3H]-arachidonic acid released into the media and remaining within the cells (free and incorporated into phospholipids) was extracted into chloroform, separated by TLC, and quantified by liquid scintillation spectrometry as described in “Experimental Procedures”. Results are representative of three separate tests.

The subject of a further test is PKCε. Nature of the test: AVP-induced PKC translocation in A-10 cells (Western), PKCε. Format: cell-based, rat. Conditions: 5 μM pretreatment 15 min, 1 μM AVP; FIG. 8. The procedure: as §1
A further test deals with T1, α-chymotrypsin (Bos taurus, UniProt P00766).
T1 construct: purchased Sigma
Briefly: Inhibition of α-chymotrypsin by BEL. The test is classed as biochemical. Conditions: 2 μM chymotrypsin, up to 5-fold molar excess of inhibitor, 5 min 22° C., then 1000-fold dilution with 100 mM hydrazine; FIG. 3. As for the experimental part:
Inhibition of α-Chymotrypsin by BEL—The kinetics of α-chymotrrpsin inactivation by (R)-, (S)-, and rac-BEL were performed similar to methods previously described (36). The concentration of α-chymotrypsin (MW=25,000) was determined using an A^1%=20 (1 cm pathlength) at 280 nm (37). Briefly, one milliliter of α-chymotrypsin (2 μM) was incubated with up to a 5-fold molar excess of (R)-,(S)-, or rac-BEL dissolved in acetonitrile or vehicle alone for 5 mm at 22° C. in 0.1 M sodium phosphate buffer, pH 7.2. […] Following incubation at 22° C. for 1 hr, chymotrypsin activity in each diluted sample was measured utilizing a SPECTRAmax GeminiXS microplate spectrofluorometer with N-succinyl-Ala-Ala-Pro-Phe-7-amidomethylcoumarin (50 μM) as substrate for 1 mm at 25° C. Excitation and emission wavelengths were 380 nm and 460 nm, respectively.
Chymotrypsin (2 μM) in 0.1 M sodium phosphate buffer, pH 7.2 was incubated with the indicated concentrations of racemic, (R)-, or (S)-BEL for 5 mm. This solution was then diluted 1000-fold in 0.1 M sodium phosphate buffer, pH 7.2 containing 100 mM hydrazine and incubated for 1 hr at 22° C. Chymotrypsin proteolytic activity was measured spectrofluorometrically using N-succinyl-Ala-Ala-Pro-Phe-7-amido-4-methylcoumarin (50 μM) as substrate.

Test [2] has as its system purified recombinant iPLA2β. Briefly: Assay of iPLA2β inhibition by BEL (radiolabeled phospholipid substrate). The test is classed as biochemical.
Protocol: Recombinant iPLA2 Enzymes—Recombinant iPLA2β was expressed and purified from Sf9 cells as previously described (35).
Assay of iPLA2β and iPLA2γ Inhibition by BEL—Purified recombinant iPLA2β or Sf9 cell membranes containing recombinant iPLA2γ were incubated with (R) BEL, (S) BEL, racemic BEL, or ethanol vehicle for 3 mm at 22° C. in the presence of 100 mM Tris-HCl (pH 7.0) and 4 mM EGTA (for iPLA2β) or 100 mM Tris-acetate (pH 8.0) and 4 mM EGTA (for iPLA2γ). The concentration of BEL used for each test ranged from 0 to 16 μM. L-α-1-palmitoyl-2-[1^14C]-arachidonyl-phosphatidylcholine (5 μM final concentration) or L-α-1-palmitoyl-2-[1-^14C]-oleoyl-phosphatidylcholine (5 μM final concentration) in ethanol was then added to each sample and incubated at 37° C. for 2 min. Reactions were terminated by extraction of radiolabeled products into butanol, and reactants and products were separated by thin layer chromatography using Whatman LK6D 60 Å Silica Gel plates with petroleum ether/ethyl ether/acetic acid (70:30:1) as the mobile phase. Regions corresponding to the migration of a fatty acid standard visualized by iodine staining were scraped into vials and radioactivity was quantified by scintillation spectrometry.
Panel A—Purified recombinant iPLA2β (1 μg/ml) in 100 mM Tris-HCl, pH 7.3 containing 1 mM EGTA was preincubated at 22° C. for 3 mm in the presence of the indicated concentrations of (R)-, (S)-, or rac-BEL or ethanol vehicle alone (1% final concentration). Radiolabeled substrate (L-α-1-palmitoyl-2-[1-^14C]-arachidonyl-phosphatidylcholine, 5 μM final concentration) was then added to each reaction and incubated at 37° C. for 2 min. Reactions were terminated by extraction of remaining substrate and products into butanol, separation by TLC, and quantification of released radiolabeled fatty acid by scintillation spectrometry as described in Experimental Procedures.

As to `O=C1O/C(=C/Br)CC[C@H]1c1cccc2ccccc12` [(S)-BEL, (S)(E)-6-(bromomethylene)-3-(1-naphthalenyl)-2H-tetrahydropyran-2-one], the “AVP-induced phosphorylation of ERK2” value in test [1] is “not effected”. Further, in the test on PKCδ, the “AVP-induced translocation of PKCδ to the membrane fraction” value is “does not effect”. In the test on A-10 smooth muscle cells (1 μM AVP, read-out: IC50, AVP-induced liberation of AA from A-10 cells), the IC50 was roughly 1000 nM. Moreover, the “inhibition of AVP-induced AA release” value with A-10 smooth muscle cells (1 μM inhibitor, 20 min pretreatment, 1 μM AVP, FIG. 5) came out at 50%. In addition, the “AVP-induced AA release (in words)” value in the test on A-10 smooth muscle cells (5 μM inhibitor, 1 μM AVP, FIG. 5) is reported as “completely attenuated”. Also, the “AVP-induced translocation of PKCε to the membrane fraction” value in the test on PKCε was “does not effect”. Moreover, the inhibition of chymotrypsin result at α-chymotrypsin is given as “considerably less potent”. Besides, the “selectivity for inhibition of iPLA2β” value in test [2] stood at 10 fold. Moreover, in test [2] (3 min preincubation, FIG. 4A), the “inhibition of iPLA2β, fold more potent than (R)-BEL” value is listed as 10 fold. Moreover, the “selectivity for iPLA2β in comparison to iPLA2γ” value in test [2] (in words) is on record as “approximately an order of magnitude more selective”.

In the case of `CCCCCCCC(=O)OC[C@H](CO)OC(=O)CCCCCCC` [DOG, 1,2-Dioctanoyl-sn-glycerol], the “restoration of arachidonic acid release in (S)-BEL treated A-10 cells” value with A-10 smooth muscle cells was “Neither PMA or DOG could restore”.

`CCCCCCCCCCCCCC(=O)O[C@@H]1[C@@H](C)[C@@]2(O)[C@@H](C=C(CO)C[C@]3(O)C(=O)C(C)=C[C@@H]23)[C@@H]2C(C)(C)[C@]12OC(C)=O` [PMA, Phorbol-12-myristate-13-acetate]: the “restoration of arachidonic acid release in (S)-BEL treated A-10 cells” value with A-10 smooth muscle cells is on record as “Neither PMA or DOG could restore”.
